These results are taken from ChEMBL document CHEMBL5030539, “Potent and Selective Inhibitors of the Epidermal Growth Factor Receptor to Overcome C797S-Mediated Resistance” (J Med Chem, 2021).

≈ marks a conversion by molar mass, not a printed value. Calls of active or inactive are those of the source. The calls are words filed in the database; no cut-off is given here.

The nature of series [1]: Intrinsic clearance in human liver microsomes. The settings on record: read-out: CLH. In kind it is ADME, Microsome. A general note: Liver microsomes are vesicles of endoplasmic reticulum, rich in cytochrome P450 enzymes.
Series [2] can be described thus: Plasma protein binding in human plasma assessed as unbound fraction. In kind it is ADME, cell-free.
Series [3] is described as follows: Inhibition of EGFR Ex19del/T790M/C797S triple mutant (unknown origin) incubated for 15 min measured by -CisBio HTRF KinEASE TK. The arrangement: species or system Homo sapiens.
The test system of series [4] is PC-9. The series is described as follows: In vivo inhibition of EGFR in human PC-9-VanR cells harboring EGFR Ex19del/T790M/C797S triple mutant xenografted in NSG mouse model assessed as inhibition of EGFR phosphorylation in tumor at 50 mg/kg, sc bid for 21 days by immunoblot analysis. The class given is functional, organism-based. Particulars: time 21.0 day. Background: Xenograft models place foreign cells or tissue in a host animal.

For a further series, the species on record is Homo sapiens. The experiment in a line: Inhibition of EGFR Ex19del/T790M/C797S triple mutant (unknown origin) assessed as enzyme residence time measured by -biacore direct binding assay.
Series [5] in a line: Inhibition of EGFR Ex19del/T790M/C797S triple mutant (unknown origin) expressed in human NCI-H1975 cells assessed as protein phosphorylation measured after 2 hrs by ELISA. In kind it is cell-based. Particulars: NCI-H1975, 2 h. A general note: An ELISA detects its analyte on a solid surface through an enzyme-linked reagent.
Series [6] in a line: Lipophilicity, log D of the compound at pH 7.4. The class given is physicochemical. The settings on record: buffer.
In series [7] the test system is PC-9. The experiment in a line: In vivo inhibition of EGFR in human PC-9-VanR cells harboring EGFR Ex19del/T790M/C797S triple mutant xenografted in NSG mouse model assessed as inhibition of Akt phosphorylation in tumor at 50 mg/kg, sc bid for 21 days by immunoblot analysis. The class given is functional, organism-based. Particulars: time 21.0 day.
A short description of series [8]: Aqueous solubility of the compound at pH 7.4. The class given is physicochemical. Particulars: buffer.
In another series the test system is NCI-H1975. The experiment in a line: Antitumour activity against human NCI-H1975 cells harboring EGFR L858R/T790M double mutant xenografted in NSG mouse model assessed as tumour growth inhibition at 50 mg/kg, sc bid for 14 days relative to control. In kind it is functional. Particulars: 336 h, time 14 day, read-out: TGI.
Series [9] can be described thus: Inhibition of wild type EFGR expressed in human LoVo cell line assessed as inhibition of EGF-stimulated EGFR phosphorylation potency measured after 2 hrs by HRTF assay. In kind it is functional.
Series [10] deals with Epidermal growth factor receptor (Homo sapiens, UniProt P00533, L858R/T790M).
Epidermal growth factor receptor (Homo sapiens, UniProt P00533, L858R/T790M), sequence (P00533 25-1210 T790M/L858R limits assumed): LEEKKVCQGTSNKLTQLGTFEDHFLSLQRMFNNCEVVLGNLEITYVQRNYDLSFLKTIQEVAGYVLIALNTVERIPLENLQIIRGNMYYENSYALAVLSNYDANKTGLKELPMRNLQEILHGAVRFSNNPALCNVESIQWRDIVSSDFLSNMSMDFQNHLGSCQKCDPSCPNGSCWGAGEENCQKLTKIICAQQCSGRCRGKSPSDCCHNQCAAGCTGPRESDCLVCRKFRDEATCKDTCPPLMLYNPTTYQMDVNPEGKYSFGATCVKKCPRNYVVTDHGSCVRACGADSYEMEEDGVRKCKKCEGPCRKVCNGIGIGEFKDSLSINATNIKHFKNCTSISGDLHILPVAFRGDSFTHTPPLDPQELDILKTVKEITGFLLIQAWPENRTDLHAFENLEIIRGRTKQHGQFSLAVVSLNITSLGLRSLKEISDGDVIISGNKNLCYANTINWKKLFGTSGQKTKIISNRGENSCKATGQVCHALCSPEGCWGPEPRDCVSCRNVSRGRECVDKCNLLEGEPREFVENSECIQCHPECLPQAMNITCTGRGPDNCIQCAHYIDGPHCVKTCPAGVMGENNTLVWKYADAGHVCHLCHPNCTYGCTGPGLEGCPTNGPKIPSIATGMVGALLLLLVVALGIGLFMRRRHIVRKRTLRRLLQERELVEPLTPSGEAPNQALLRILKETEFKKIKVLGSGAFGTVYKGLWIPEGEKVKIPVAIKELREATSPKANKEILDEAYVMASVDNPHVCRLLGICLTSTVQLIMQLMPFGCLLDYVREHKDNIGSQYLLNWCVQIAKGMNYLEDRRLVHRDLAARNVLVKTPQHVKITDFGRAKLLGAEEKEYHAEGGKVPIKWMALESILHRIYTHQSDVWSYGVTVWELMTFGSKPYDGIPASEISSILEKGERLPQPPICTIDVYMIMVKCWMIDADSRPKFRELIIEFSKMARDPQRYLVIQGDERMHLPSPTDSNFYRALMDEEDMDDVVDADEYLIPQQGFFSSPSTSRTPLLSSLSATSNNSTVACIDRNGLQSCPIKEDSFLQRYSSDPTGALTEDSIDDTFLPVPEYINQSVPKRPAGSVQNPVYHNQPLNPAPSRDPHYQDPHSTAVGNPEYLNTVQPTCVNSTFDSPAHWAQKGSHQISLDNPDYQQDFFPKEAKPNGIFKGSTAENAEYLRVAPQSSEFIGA
The target of series [11] is Epidermal growth factor receptor (Homo sapiens, UniProt P00533). The experiment in a line: Inhibition of Wild type EGFR (unknown origin).
Epidermal growth factor receptor (Homo sapiens, UniProt P00533), sequence (P00533 whole entry): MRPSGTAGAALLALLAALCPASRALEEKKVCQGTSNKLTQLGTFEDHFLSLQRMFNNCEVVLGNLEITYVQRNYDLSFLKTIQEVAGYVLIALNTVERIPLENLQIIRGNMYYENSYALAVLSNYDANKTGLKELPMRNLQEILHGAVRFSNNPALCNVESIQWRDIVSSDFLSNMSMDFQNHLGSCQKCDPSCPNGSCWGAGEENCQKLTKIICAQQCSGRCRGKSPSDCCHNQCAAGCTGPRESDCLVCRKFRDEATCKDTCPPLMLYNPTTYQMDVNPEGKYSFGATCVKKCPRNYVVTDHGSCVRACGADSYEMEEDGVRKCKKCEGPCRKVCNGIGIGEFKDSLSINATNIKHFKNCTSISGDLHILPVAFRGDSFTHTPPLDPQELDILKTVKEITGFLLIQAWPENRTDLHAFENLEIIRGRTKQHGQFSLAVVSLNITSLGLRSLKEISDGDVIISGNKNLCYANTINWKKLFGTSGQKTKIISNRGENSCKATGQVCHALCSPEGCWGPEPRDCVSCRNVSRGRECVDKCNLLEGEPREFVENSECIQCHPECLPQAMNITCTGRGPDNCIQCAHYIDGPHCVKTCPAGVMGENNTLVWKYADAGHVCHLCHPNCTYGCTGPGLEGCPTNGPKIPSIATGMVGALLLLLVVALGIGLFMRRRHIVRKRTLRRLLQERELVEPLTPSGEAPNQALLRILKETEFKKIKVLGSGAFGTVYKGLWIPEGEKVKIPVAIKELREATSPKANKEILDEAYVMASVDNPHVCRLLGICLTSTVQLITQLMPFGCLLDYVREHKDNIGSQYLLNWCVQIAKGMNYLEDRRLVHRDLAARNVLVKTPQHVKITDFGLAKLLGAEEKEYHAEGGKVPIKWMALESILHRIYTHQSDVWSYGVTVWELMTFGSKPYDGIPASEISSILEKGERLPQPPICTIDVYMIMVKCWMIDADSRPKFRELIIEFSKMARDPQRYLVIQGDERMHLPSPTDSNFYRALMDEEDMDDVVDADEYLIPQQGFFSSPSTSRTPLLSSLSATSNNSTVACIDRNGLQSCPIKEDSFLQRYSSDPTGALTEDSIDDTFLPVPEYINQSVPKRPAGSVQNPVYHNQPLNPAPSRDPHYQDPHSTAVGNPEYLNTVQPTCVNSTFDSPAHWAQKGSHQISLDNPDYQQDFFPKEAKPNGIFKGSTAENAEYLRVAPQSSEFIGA
Series [12] concerns PC-9. The experiment in a line: In vivo inhibition of EGFR in human PC-9-VanR cells harboring EGFR Ex19del/T790M/C797S triple mutant xenografted in NSG mouse model assessed as inhibition of S6 phosphorylation in tumor at 50 mg/kg, sc bid for 21 days by immunoblot analysis. The class given is functional, organism-based. The settings on record: time 21.0 day.
Series [13] has as its system PC-9. The series is described as follows: Antitumour activity against human PC-9-VanR cells harboring EGFR Ex19del/T790M/C797S triple mutant xenografted in NSG mouse model assessed as tumour growth inhibition at 50 mg/kg, sc bid for 21 days. In kind it is functional. Particulars: PC-9, sc, 504 h, time 21 day, read-out: TGI.
The nature of series [14]: Intrinsic clearance in rat hepatocyte measured per 10^6 cells. The class given is ADME, tissue-based. The settings on record: hepatocytes.
Series [15] can be described thus: Inhibition of EFGR Ex19del (unknown origin) expressed in human PC-9 cells assessed as inhibition of EGF-induced phosphorylation measured after 2 hrs by ELISA. The class given is cell-based. The settings on record: PC-9, 2 h.
Series [16] can be described thus: Toxicity in mouse NSG assessed as change in body weight at 50 mg/kg, sc bid for 14 to 21 days. The settings on record: in vivo, time 14-21 day. The class given is organism-based.
Series [17] relates to PC-9. The series is described as follows: In vivo inhibition of EGFR in human PC-9-VanR cells harboring EGFR Ex19del/T790M/C797S triple mutant xenografted in NSG mouse model assessed as inhibition of ERK phosphorylation in tumor at 50 mg/kg, sc bid for 21 days by immunoblot analysis. In kind it is functional, organism-based. Particulars: time 21.0 day.
Series [18] can be described thus: Intrinsic permeability of compound across apical to basolateral side in human Caco-2 cells. The class given is ADME, cell-based. The settings on record: read-out: permeability.
The nature of series [19]: Inhibition of EFGR Ex19del/T790M/C797S triple mutant (unknown origin) expressed in human PC-9-VanR cells assessed as inhibition of EGF-induced phosphorylation measured after 2 hrs by ELISA. Particulars: PC-9, 2 h. In kind it is cell-based.
A short description of series [20]: Dissociation constant, pKa of compound. The class given is physicochemical.
Series [21] in a line: Inhibition of EGFR Exon19Del/C797S double mutant (unknown origin) by biochemical assay. The arrangement: species or system Homo sapiens.

By IC50 is commonly meant the point on the concentration scale where inhibition reaches its midpoint. The logD is the decadic logarithm of the distribution of all forms, ionised or not, between an organic phase and buffer at a given pH. By solubility is commonly meant the concentration that dissolves in the medium under given conditions. A high value points to a readily soluble substance. Consider `COc1cc(N2CCOCC2)c(-c2cnn(C)c2)cc1Nc1ncc(Cl)c(Nc2ccccc2P(C)(C)=O)n1`, for which the microsomal CLint in [1] amounted to 49 µL/min/mg. Further, the fraction unbound in series [2] (read-out: Fu) is 0.07. The IC50 in [3] came out at 0.2 nM; in [5], 122 nM; in series [9], 1180 nM; in [10] it was 32 nM; in series [11], 4.4 nM; in series [15] it was 52 nM. Moreover, the IC50 in [19] came out at 739 nM. The outcome in the series with PC-9 [4], with PC-9 [7], in the series with PC-9 [12] and with PC-9 [17] was Active. In addition, in the series filed under Homo sapiens, the TIME stood at 1.37 h. The same molecule registered a logD in series [6] of 3. Also, the concentration in solution in [8] (solubility) came to 8.7 µM (≈ 4.94 µg/mL). For the same molecule, the values for the inhibition in vivo at 50 mg/kg with NCI-H1975 and with PC-9 [13] were 87% and 52%, respectively. In addition, in series [14], the CLH was 16 uL/min/10^6 cells. Further, the Activity entry in series [16] is listed as “Toxic”. The Papp A→B at 10 µM in series [18] is 61 ×10⁻⁶ cm/s.
One may read the pKa as the pH at which an ionisable group is half protonated. Read a high pKa as a group that holds its proton tightly. Regarding `COc1cc(N2CCN(C)CC2)c(-c2cnn(C)c2)cc1Nc1ncc(Cl)c(Nc2ccccc2P(C)(C)=O)n1`, the microsomal CLint in series [1] amounted to 24 µL/min/mg. Moreover, the fraction unbound in series [2] (read-out: Fu) was 0.243. Besides, the IC50 in series [3] amounted to 0.23 nM; in series [5], 241 nM; in series [9], 79 nM; in series [11], 3.3 nM. Besides, the TIME in the series listed under Homo sapiens was 2.65 h. Besides, in series [6], the logD was 2.4. In series [8], this molecule had a solubility greater than 1000 µM. In series [20], this molecule had a pKa of 7.6. The molecule also returned a CLH in series [14] of less than 1 uL/min/10^6 cells. Further, the Papp A→B at 10 µM in series [18] came out at 2.6 ×10⁻⁶ cm/s.
Take `COc1cc(N2CCOCC2)c(-c2cn[nH]c2)cc1Nc1ncc(Cl)c(Nc2ccccc2P(C)(C)=O)n1`: the microsomal CLint in series [1] stood at 28 µL/min/mg. The fraction unbound in [2] (read-out: Fu) is 0.009. For the same molecule, in the series listed under Homo sapiens, the TIME came out at 3.97 h. Moreover, the IC50 in series [5] came out at 1090 nM; in series [9] it was 2140 nM. The same molecule yielded a logD in series [6] of 3.4. In series [8], this molecule had a solubility of less than 3 µM. Further, the Papp A→B at 10 µM in series [18] was 18 ×10⁻⁶ cm/s.
For `COc1cc(N2CCC(N3CCN(C)CC3)CC2)c(-c2cnn(C)c2)cc1Nc1ncc(Cl)c(Nc2ccccc2P(C)(C)=O)n1`, the microsomal CLint in [1] turned out to be 21 µL/min/mg. Further, the fraction unbound in series [2] (read-out: Fu) worked out at 0.228. Also, the IC50 in series [3] is 0.32 nM; in series [5] it was 91 nM; in [9], 140 nM; in series [11], 0.92 nM. For the same molecule, the TIME in the series listed under Homo sapiens was found to be 2.52 h. Further, the logD in series [6] was 2.7. The same molecule returned a solubility in series [8] greater than 1000 µM. In series [14], this molecule registered a CLH of less than 1 uL/min/10^6 cells. For the same molecule, the Papp A→B at 10 µM in [18] was less than 0.62 ×10⁻⁶ cm/s.
For `COc1cc(N2CCC(N3CCN(C)CC3)CC2)ccc1Nc1ncc(Cl)c(Nc2ccccc2P(C)(C)=O)n1` [BRIGATINIB], the microsomal CLint in [1] came out at 3.1 µL/min/mg. The fraction unbound in [2] is 0.155. Further, the IC50 was 7 nM in series [3]; 132 nM in [21]; 459 nM in series [5]; 2030 nM in series [9]; 357 nM in series [15]; 2680 nM in [19]. In the series filed under Homo sapiens, the TIME was determined as 0.333 h. The logD in [6] was determined as 2.3. Also, the solubility in series [8] was greater than 1190 µM. Further, in [18], the Papp A→B at 10 µM worked out at 4.7 ×10⁻⁶ cm/s.
As to `CCP(=O)(CC)c1ccccc1Nc1nc(Nc2cc(-c3cnn(C)c3)c(N3CCOCC3)cc2OC)ncc1Cl`, the microsomal CLint in series [1] was 71 µL/min/mg. The fraction unbound in series [2] (read-out: Fu) came to 0.041. In addition, the IC50 in series [3] worked out at 0.2 nM; in series [5] it was 139 nM; in series [11], 2.4 nM. In addition, in the series filed under Homo sapiens, the TIME worked out at 1.83 h. The same molecule had a logD in series [6] of 4. This molecule also displayed a CLH in [14] of 67 uL/min/10^6 cells. Besides, the Papp A→B at 10 µM in series [18] amounted to 78 ×10⁻⁶ cm/s.
As to `COc1cc(N2CCC(N(C)C)CC2)c(-c2cn[nH]c2)cc1Nc1ncc(Cl)c(Nc2ccccc2P(C)(C)=O)n1`, in [1], the microsomal CLint came out at 23 µL/min/mg. The fraction unbound in series [2] (read-out: Fu) is 0.19. Moreover, the IC50 in series [3] came to 0.5 nM; in [5], 2010 nM; in [9], 373 nM; in series [11] it was 0.9 nM. In addition, in the series listed under Homo sapiens, the TIME came to 2.3 h. In series [6], this molecule showed a logD of 1.8. For the same molecule, the solubility in [8] is greater than 1000 µM. In series [14], the CLH was less than 1 uL/min/10^6 cells. Further, in series [18], the Papp A→B at 10 µM was determined as 0.24 ×10⁻⁶ cm/s.
Turning to `C=CC(=O)Nc1cc(Nc2nccc(-c3cn(C)c4ccccc34)n2)c(OC)cc1N(C)CCN(C)C` [OSIMERTINIB], the IC50 in series [21] was 44 nM.
As to `COc1cc(N2CCC(N(C)C)CC2)c(-c2cnn(C)c2)cc1Nc1ncc(Cl)c(Nc2ccccc2P(C)(C)=O)n1`, in series [1], the microsomal CLint stood at 31 µL/min/mg. Also, in series [2] (read-out: Fu), the fraction unbound was found to be 0.272. In addition, the figures for the IC50 in [3], in [9] and in [11] were 0.19 nM, 101 nM and 1.7 nM, respectively. Besides, in the series listed under Homo sapiens, the TIME came to 1.08 h. In series [6], this molecule yielded a logD of 1.9. The solubility in [8] was greater than 1000 µM. Further, in series [20], the pKa came to 9.4. The CLH in series [14] is given as less than 1 uL/min/10^6 cells. The Papp A→B at 10 µM in series [18] is less than 0.24 ×10⁻⁶ cm/s.
For the molecule `COc1cc(N2CCC(N3CCN(C)CC3)CC2)c(-c2cn[nH]c2)cc1Nc1ncc(Cl)c(Nc2ccccc2P(C)(C)=O)n1`, the microsomal CLint in series [1] was found to be 28 µL/min/mg. For the same molecule, the fraction unbound in [2] (read-out: Fu) is 0.1. Moreover, the IC50 in series [3] stood at 0.3 nM; in [5], 498 nM; in series [9], 726 nM. Moreover, the TIME in the series listed under Homo sapiens amounted to 2.2 h. Moreover, in [6], the logD came to 2.5. The molecule also had a solubility in series [8] greater than 1000 µM.
